≈ marks a conversion by molar mass, not a printed value.
Experiments:
Assay type in all cases: cell-based
[1] = tested on: S. pyogenes; test: Antibacterial activity, microdilution in culture broth (NCCLS), strain F; settings: Streptococcus pyogenes, G (+) hospital strain, inoculum 5×10^5 UFC/ml
Text: (§1) The antibacterial activity of the new synthesised compounds on the various strains of the bacterial species was implemented using the technique of microdilution in culture broth according to the regulations of the National Committee for Clinical Laboratory Standards (NCCLS), (NCCLS. 1993. Methods for dilution antimicrobial susceptibility tests for bacteria that grow aerobically. Approved standard M7-A3. NCCLS, Vilanova. Pa., and NCCLS. 1993. Methods for dilution antimicrobial susceptibility tests for anaerobic bacteria […]. Approved standard M1-A3. NCCLS, Vilanova. Pa.).
(§2) The inoculum used was 5×10^5 UFC/ml following dilution of the cultures overnight in the exponential phase of bacterial growth.
(§3) The MIC expressed in mg/l was defined as the minimum concentration of antibiotic which inhibited any visible growth.
(§4) The compounds were tested on the strains of G(+) and G(−) bacteria set out in Table 1, in which: […]

[2] = tested on: S. aureus resistant to meticillin; test: Antibacterial activity, microdilution in culture broth (NCCLS), strain A; settings: Staphylococcus aureus, G (+) hospital strain, inoculum 5×10^5 UFC/ml
Text: as §1, §2, §3
(§5) Linezolid was included as comparative compound.
as §4

[3] = tested on: E. faecalis resistant to vancomycin; test: Antibacterial activity, microdilution in culture broth (NCCLS), strain B; settings: Enterococcus faecalis, G (+) hospital strain, inoculum 5×10^5 UFC/ml
Text: as §1, §2, §3, §5, §4

[4] = tested on: S. pneumoniae resistant to penicillin; test: Antibacterial activity, microdilution in culture broth (NCCLS), strain C; settings: Streptococcus pneumoniae, G (+) hospital strain, inoculum 5×10^5 UFC/ml
Text: as §1, §2, §3, §5, §4

[5] = tested on: B. fragilis; test: Antibacterial activity, microdilution in culture broth (NCCLS), strain G (anaerobic); settings: Bacteroides fragilis, anaerobic hospital strain, inoculum 5×10^5 UFC/ml
Text: as §1, §2, §3, §5, §4

[6] = tested on: S. agalactiae; test: Antibacterial activity, microdilution in culture broth (NCCLS), strain D; settings: Streptococcus agalactiae, G (+) hospital strain, inoculum 5×10^5 UFC/ml
Text: as §1, §2, §3, §5, §4

[7] = tested on: S. epidermidis; test: Antibacterial activity, microdilution in culture broth (NCCLS), strain E; settings: Staphylococcus epidermidis, G (+) hospital strain, inoculum 5×10^5 UFC/ml
Text: as §1, §2, §3, §5, §4

[8] = tested on: M. Catarrahalis; test: Antibacterial activity, microdilution in culture broth (NCCLS), strain J; settings: G (−) hospital strain, inoculum 5×10^5 UFC/ml
Text: as §1, §2, §3, §5, §4

[9] = tested on: H. influenzae; test: Antibacterial activity, microdilution in culture broth (NCCLS), strain I; settings: Haemophilus influenzae, G (−) hospital strain, inoculum 5×10^5 UFC/ml
Text: as §1, §2, §3, §5, §4

[10] = tested on: E. coli; test: Antibacterial activity, microdilution in culture broth (NCCLS), strain H; settings: Escherichia coli, G (−) hospital strain, inoculum 5×10^5 UFC/ml
Text: as §1, §2, §3, §5, §4

MIC [1] | MIC [2] | MIC [3] | MIC [4] | MIC [5] | MIC [6] | MIC [7] | MIC [8] | MIC [9] | MIC [10] | Compound
< 0.125 µg/mL | 0.25 µg/mL (≈ 0.429 µM) | < 0.125 µg/mL | < 0.125 µg/mL | 0.25 µg/mL (≈ 0.429 µM) | < 0.125 µg/mL | < 0.125 µg/mL | 0.5 µg/mL (≈ 0.858 µM) | 2 µg/mL (≈ 3.43 µM) | 64 µg/mL (≈ 110 µM) | CC(=O)NC[C@H]1CN(c2ccc(N3CCN(c4nc5c(cc4F)c(=O)c(C(=O)O)cn5C4CC4)CC3)c(F)c2)C(=O)O1 [EXAMP. 21, 7-(4-{4-[5-(S)-(acetylamino-methyl)-2-oxo-oxazolidin-3-yl]-2-fluoro-phenyl}-piperazin-1-yl)-1-cyclopropyl-6-fluoro-4-oxo-1,4-dihydro-[1,8]Naphthyridine-3-carboxylic Acid]
1 µg/mL (≈ 1.53 µM) | 1 µg/mL (≈ 1.53 µM) | 2 µg/mL (≈ 3.06 µM) | 1 µg/mL (≈ 1.53 µM) | > 64 µg/mL | 1 µg/mL (≈ 1.53 µM) | 0.5 µg/mL (≈ 0.764 µM) | 4 µg/mL (≈ 6.11 µM) | 2 µg/mL (≈ 3.06 µM) | > 64 µg/mL | CC(=O)NC[C@H]1CN(c2ccc(N3CCN(c4nc5c(cc4F)c(=O)c(C(=O)O)cn5-c4ccc(F)cc4F)CC3)c(F)c2)C(=O)O1 [EXAMP. 20, 7-(4-{4-[5-(S)-(acetylamino-methyl)-2-oxo-oxazolidin-3-yl]-2-fluoro-phenyl}-piperazin-1-yl)-1-(2,4-difluoro-phenyl)-6-fluoro-4-oxo-1,4-dihydro-[1,8]Naphthyridine-3-carboxylic Acid]
0.5 µg/mL (≈ 0.818 µM) | 0.5 µg/mL (≈ 0.818 µM) | 0.5 µg/mL (≈ 0.818 µM) | 0.5 µg/mL (≈ 0.818 µM) | 1 µg/mL (≈ 1.64 µM) | 1 µg/mL (≈ 1.64 µM) | 0.125 µg/mL (≈ 0.204 µM) | 1 µg/mL (≈ 1.64 µM) | 4 µg/mL (≈ 6.54 µM) | 32 µg/mL (≈ 52.3 µM) | CCOC(=O)NC[C@H]1CN(c2ccc(N3CCN(c4cc5c(cc4F)c(=O)c(C(=O)O)cn5C4CC4)CC3)c(F)c2)C(=O)O1 [EXAMP. 11, 1-cyclopropyl-7-(4-{4-[5-(S)-(ethoxycarbonylamino-methyl)-2-oxo-oxazolidin-3-yl]-2-fluoro-phenyl}-piperazin-1-yl)-6-fluoro-4-oxo-1,4-dihydro-quinoline-3-carboxylic Acid]
1 µg/mL (≈ 1.64 µM) | 4 µg/mL (≈ 6.55 µM) | 2 µg/mL (≈ 3.28 µM) | 1 µg/mL (≈ 1.64 µM) | 8 µg/mL (≈ 13.1 µM) | 1 µg/mL (≈ 1.64 µM) | 2 µg/mL (≈ 3.28 µM) | 8 µg/mL (≈ 13.1 µM) | > 64 µg/mL | > 64 µg/mL | CCOC(=O)c1cn(C2CC2)c2nc(N3CCN(c4ccc(N5C[C@H](CNC(C)=O)OC5=O)cc4F)CC3)c(F)cc2c1=O [EXAMP. 16, 7-(4-{4-[5-(S)-(acetylamino-methyl)-2-oxo-oxazolidin-3-yl]-2-fluoro-phenyl}-piperazin-1-yl)-1-cyclopropyl-6-fluoro-4-oxo-1,4-dihydro-[1,8]Naphthyridine-3-carboxylic Acid Ethyl Ester]
1 µg/mL (≈ 1.64 µM) | 1 µg/mL (≈ 1.64 µM) | 2 µg/mL (≈ 3.28 µM) | 1 µg/mL (≈ 1.64 µM) | 4 µg/mL (≈ 6.55 µM) | 1 µg/mL (≈ 1.64 µM) | 0.25 µg/mL (≈ 0.409 µM) | 2 µg/mL (≈ 3.28 µM) | 4 µg/mL (≈ 6.55 µM) | 64 µg/mL (≈ 105 µM) | CCNC(=O)NC[C@H]1CN(c2ccc(N3CCN(c4cc5c(cc4F)c(=O)c(C(=O)O)cn5C4CC4)CC3)c(F)c2)C(=O)O1 [EXAMP. 10, 1-cyclopropyl-7-[4-(4-{5-(S)-[(3-ethyl-ureido)-methyl]-2-oxo-oxazolidin-3-yl}-2-fluoro-phenyl)-piperazin-1-yl]-6-fluoro-4-oxo-1,4-dihydro-quinoline-3-carboxylic Acid]
8 µg/mL (≈ 12.5 µM) | 4 µg/mL (≈ 6.27 µM) | 8 µg/mL (≈ 12.5 µM) | 4 µg/mL (≈ 6.27 µM) | > 64 µg/mL | 8 µg/mL (≈ 12.5 µM) | 4 µg/mL (≈ 6.27 µM) | 2 µg/mL (≈ 3.14 µM) | 1 µg/mL (≈ 1.57 µM) | 32 µg/mL (≈ 50.2 µM) | C#CC(O)[C@H]1CN(c2ccc(N3CCN(c4nc5c(cc4F)c(=O)c(C(=O)O)cn5-c4ccc(F)cc4F)CC3)c(F)c2)C(=O)O1 (stereo partly drawn) [EXAMP. 19, 1-(2,4-difluoro-phenyl)-6-fluoro-7-(4-{2-fluoro-4-[5-(R)-(1-hydroxy-prop-2-inyl)-2-oxo-oxazolidin-3-yl]-phenyl}-piperazin-1-yl)-4-oxo-1,4-dihydro-[1,8]Naphthyridine-3-carboxylic Acid]
< 0.125 µg/mL | 0.25 µg/mL (≈ 0.439 µM) | 0.25 µg/mL (≈ 0.439 µM) | < 0.125 µg/mL | 0.5 µg/mL (≈ 0.878 µM) | < 0.125 µg/mL | < 0.125 µg/mL | 1 µg/mL (≈ 1.76 µM) | 2 µg/mL (≈ 3.51 µM) | 16 µg/mL (≈ 28.1 µM) | CCn1cc(C(=O)O)c(=O)c2cc(F)c(N3CCN(c4ccc(N5C[C@H](CNC(C)=O)OC5=O)cc4F)CC3)cc21 [EXAMP. 4, 7-(4-{4-[5-(S)-(acetylamino-methyl)-2-oxo-oxazolidin-3-yl]-2-fluoro-phenyl}-piperazin-1-yl)-1-ethyl-6-fluoro-4-oxo-1,4-dihydro-quinoline-3-carboxylic Acid]
1 µg/mL (≈ 1.64 µM) | 2 µg/mL (≈ 3.27 µM) | 1 µg/mL (≈ 1.64 µM) | 1 µg/mL (≈ 1.64 µM) | 16 µg/mL (≈ 26.2 µM) | 0.5 µg/mL (≈ 0.818 µM) | 0.5 µg/mL (≈ 0.818 µM) | 0.25 µg/mL (≈ 0.409 µM) | < 0.125 µg/mL | 2 µg/mL (≈ 3.27 µM) | CC(=O)NC[C@H]1CN(c2ccc(N(C)C3CCN(c4c(F)cc5c(=O)c(C(=O)O)cn6c5c4OCC6C)C3)c(F)c2)C(=O)O1 (stereo partly drawn) [EXAMP. 6, 9-[3-({4-[5-(S)-(acetylamino-methyl)-2-oxo-oxazolidin-3-yl]-2-fluoro-phenyl}-methyl-amino)-pyrrolidin-1-yl]-8-fluoro-3-methyl-6-oxo-2,3-dihydro-6H-1-oxa-3a-aza-phenalen-5-carboxylic Acid]
1 µg/mL (≈ 1.58 µM) | 2 µg/mL (≈ 3.16 µM) | 2 µg/mL (≈ 3.16 µM) | 0.5 µg/mL (≈ 0.789 µM) | 4 µg/mL (≈ 6.31 µM) | 0.5 µg/mL (≈ 0.789 µM) | 1 µg/mL (≈ 1.58 µM) | 4 µg/mL (≈ 6.31 µM) | 64 µg/mL (≈ 101 µM) | > 64 µg/mL | CCOC(=O)c1cn(CCF)c2c(F)c(N3CCN(c4ccc(N5C[C@H](CNC(C)=O)OC5=O)cc4F)CC3)c(F)cc2c1=O [EXAMP. 17, 7-(4-{4-[5-(S)-(acetylamino-methyl)-2-oxo-oxazolidin-3-yl]-2-fluoro-phenyl}-piperazin-1-yl)-6,8-difluoro-1-(2-fluoro-ethyl)-4-oxo-1,4-dihydro-quinoline-3-carboxylic Acid Ethyl Ester]
< 0.125 µg/mL | 0.25 µg/mL | 0.125 µg/mL | < 0.125 µg/mL | 0.25 µg/mL | 0.125 µg/mL | 0.125 µg/mL | 0.25 µg/mL | 0.25 µg/mL | 8 µg/mL | CC(=O)NC[C@H]1CN(c2ccc(N3CCN(c4cc5c(cc4F)c(=O)c(C(=O)O)cn5C4CC4)CC3)c(F)c2)C(=O)O1 [EXAMP. 1 + 8, 7-(4-{4-[5-(S)-(acetylamino-methyl)-2-oxo-oxazolidin-3-yl]-2-fluoro-phenyl}-piperazin-1-yl)-1-cyclopropyl-6-fluoro-4-oxo-1,4-dihydro-quinoline-3-carboxylic Acid]
< 0.125 µg/mL | < 0.125 µg/mL | < 0.125 µg/mL | < 0.125 µg/mL | 0.5 µg/mL (≈ 0.816 µM) | < 0.125 µg/mL | < 0.125 µg/mL | 0.25 µg/mL (≈ 0.408 µM) | 1 µg/mL (≈ 1.63 µM) | > 64 µg/mL | CNC(=S)NC[C@H]1CN(c2ccc(N3CCN(c4cc5c(cc4F)c(=O)c(C(=O)O)cn5C4CC4)CC3)c(F)c2)C(=O)O1 [EXAMP. 9, 1-cyclopropyl-6-fluoro-7-[4-(2-fluoro-4-{5-(S)-[(3-methyl-thioureido)-methyl]-2-oxo-oxazolidin-3-yl}-phenyl)-piperazin-1-yl]-4-oxo-1,4-dihydro-quinoline-3-carboxylic Acid]
0.5 µg/mL (≈ 0.863 µM) | 0.5 µg/mL (≈ 0.863 µM) | 0.5 µg/mL (≈ 0.863 µM) | 0.5 µg/mL (≈ 0.863 µM) | 2 µg/mL (≈ 3.45 µM) | 0.5 µg/mL (≈ 0.863 µM) | 0.25 µg/mL (≈ 0.431 µM) | 1 µg/mL (≈ 1.73 µM) | 1 µg/mL (≈ 1.73 µM) | 4 µg/mL (≈ 6.9 µM) | CC(=O)NC[C@H]1CN(c2ccc(N3CCN(c4c(F)cc5c(=O)c(C(=O)O)cn6c5c4OCC6C)CC3)cc2)C(=O)O1 (stereo partly drawn) [EXAMP. 5, 9-(4-{4-[5-(S)-(acetylamino-methyl)-2-oxo-oxazolidin-3-yl]-phenyl}-piperazin-1-yl)-8-fluoro-3-methyl-6-oxo-2,3-dihydro-6H-1-oxa-3a-aza-phenalen-5-carboxylic Acid]
– | 2 µg/mL (≈ 5.93 µM) | 2 µg/mL (≈ 5.93 µM) | 1 µg/mL (≈ 2.96 µM) | 2 µg/mL (≈ 5.93 µM) | 2 µg/mL (≈ 5.93 µM) | 1 µg/mL (≈ 2.96 µM) | 16 µg/mL (≈ 47.4 µM) | 16 µg/mL (≈ 47.4 µM) | > 64 µg/mL | CC(=O)NC[C@H]1CN(c2ccc(N3CCOCC3)c(F)c2)C(=O)O1 [Linezolid, reference compound]

Reference: patent publication US20040147545A1, “Derivatives of oxazolidinones as antibacterial agents” (priority 2001, published 2004)
